Experimental data published in patent publication EP1154787B1 (priority 1999, dated 2000).
Several values for one entry are separate records, joined by “and”; a condition that tells them apart may be missing. Identical values can stand only once. Entries after “also recorded” stand apart in the source; their conditions may differ. Counter-ions that a name gives are not always drawn. Like-named read-outs stand apart in the source and are kept apart here.

Assays:
VSV [1] = assay type: cell-based
kunjin virus [2] = assay type: cell-based
a viral challenge = assay type: cell-based; conditions: for EC50: read-out: µM of test compounds # (concentration of test compound alone to protect Vero cells against a viral challenge by approximately 50%)
[3] = cited from earlier work
dengue virus = assay type: cell-based
yellow fever virus = assay type: cell-based
kunjin virus [4] = assay type: cell-based; remark: listed apart in the source
VSV [5] = assay type: cell-based; remark: listed apart in the source

SMILES	CI (VSV [1])	Fold enhancement of antiviral activity (a viral challenge) [fold]	EC50 (a viral challenge) [µM]	CI (yellow fever virus)	also measured
Nc1nccc2c1ncn2[C@@H]1C=C(CO)[C@@H](O)[C@H]1O [3-DAN, 3-deazaneplanocin A]	0.88 and 0.85 and 0.79 and 0.80 and 0.92 and 0.90 and 0.84				
O=c1cnn([C@@H]2O[C@H](CO)[C@@H](O)[C@H]2O)c(=O)[nH]1 [6-AU, 6-azauridine]	0.49 and 0.59				
Nc1ccn([C@@H]2C=C(CO)[C@@H](O)[C@H]2O)c(=O)n1 [CPE-C, cyclopentenyl cytosine]	0.98 and 0.81 and 0.80 and 0.97 and 0.75 and 0.79 and 0.76 and 0.74	10	~0.1		enhancement of the antiviral activity of interferon (kunjin virus [2]): 10 fold and 5 fold; deaths with refractory hypotension ([3]; hypotensive patients at 4.7 mg/m^2 per hour of CPE-C): Two of the four hypotensive patients died; hypotension ([3]; patients receiving ≤2.5 mg/m^2 per h CPE-C): Hypotension was not seen; also recorded: no hypotension was observed; hypotension ([3]; patients who received 4.7 mg/m^2 per hour of CPE-C, 24 to 48 hours after completion of infusion): Four of the eleven patients
C#Cc1c(C(N)=O)ncn1[C@@H]1O[C@H](CO)[C@@H](O)[C@H]1O [EICAR, 5-ethynyl-1-β-D-ribofuranosylimidazole-4-carboxamide]		2	~1		
Cc1nc(N)nc(N)c1-c1ccc(Cl)c(Cl)c1 [NSC 7364]					CI (dengue virus): 0.834 and 0.813 and 0.979; IC50 (dengue virus; read-out: NSC 7364 IC50): 372 nM
NC(=O)c1[nH]nc([C@@H]2O[C@H](CO)[C@@H](O)[C@H]2O)c1O [NSC 143095]				0.71 and 0.57 and 0.69	
CCc1c(CNc2ccc(C(=O)NC(CC(=O)O)C(=O)O)cc2)ccc2nc(N)nc(N)c12 (stereo not drawn) [NSC 184692]					enhanced the anti-viral effect of human IFNβ (dengue virus): 10 fold; EC50 (dengue virus; read-out: ED50 against dengue virus): 0.12 nM
CCc1nc(N)nc(N)c1-c1ccc(Cc2ccccc2)c([N+](=O)[O-])c1 [NSC 382046]					CI (dengue virus): 0.758 and 0.672; CI (kunjin virus [4]): 0.99 and 0.96 and 0.83 and 0.75 and 0.70
Nc1ncnc2c1ncn2[C@@H]1C=C(CO)[C@@H](O)[C@H]1O [Neplanocin A, neplanocin A]	0.80 and 0.56 and 0.40 and 0.67 and 0.71			0.63 and 0.71 and 0.59	
NC(=O)c1c[se]c([C@@H]2O[C@H](CO)[C@@H](O)[C@H]2O)n1 [Selenofurin, 2-β-D-ribofuranosylselenazole-4-carboxamide]				0.94 and 0.65 and 0.53 and 0.62 and 0.49	
NC(=O)c1csc([C@@H]2O[C@H](CO)[C@@H](O)[C@H]2O)n1 [Tiazofurin, 2-β-D-ribofuranosylthiazole-4-carboxamide]				0.85 and 0.68 and 0.51 and 0.87	
NC12CC3CC(CC(C3)C1)C2 [amantadine, amantadine hydrochloride]		50	~1		CI (VSV [1]; hydrochloride): 0.79 and 0.76 and 0.62 and 0.66 and 0.87; CI (kunjin virus [4]): 0.76
COc1c(C)c2c(c(O)c1C/C=C(\C)CCC(=O)O)C(=O)OC2 [mycophenolic acid]		3	~0.1		IC50 (VSV [1]; read-out: MPA IC50): 200 nM; CI (VSV [5]): 0.48 and 0.46 and 0.56
